In this assay the target is T1, TRAP1 enzyme (Homo sapiens, UniProt Q12931).
T1 construct: 150 nM Trap1 enzyme was incubated with various concentrations of the test compound
T1 sequence (Q12931 60-704): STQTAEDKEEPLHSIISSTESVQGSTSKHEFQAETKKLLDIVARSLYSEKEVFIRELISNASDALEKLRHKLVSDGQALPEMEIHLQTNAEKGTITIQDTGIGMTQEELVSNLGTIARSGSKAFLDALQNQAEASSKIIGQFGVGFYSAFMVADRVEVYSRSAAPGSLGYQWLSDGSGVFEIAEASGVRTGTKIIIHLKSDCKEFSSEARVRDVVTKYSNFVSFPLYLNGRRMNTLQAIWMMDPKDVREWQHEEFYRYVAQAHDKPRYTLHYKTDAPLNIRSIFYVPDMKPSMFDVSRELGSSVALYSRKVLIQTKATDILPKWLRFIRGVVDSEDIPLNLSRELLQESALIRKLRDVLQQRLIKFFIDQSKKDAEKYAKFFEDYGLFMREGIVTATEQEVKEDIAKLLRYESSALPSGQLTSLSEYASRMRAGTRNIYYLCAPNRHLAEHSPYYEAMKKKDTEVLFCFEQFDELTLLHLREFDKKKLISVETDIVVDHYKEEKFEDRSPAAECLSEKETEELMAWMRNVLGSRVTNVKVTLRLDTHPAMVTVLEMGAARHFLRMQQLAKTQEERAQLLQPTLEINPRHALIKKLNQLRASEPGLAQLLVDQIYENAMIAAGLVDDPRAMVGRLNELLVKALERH
The assay is described as follows: ADP Glo assay of TRAP1 ATPase activity. The class given is biochemical. Particulars: for activation at 50 µM: 1 h, compound concentration 50 μM, read-out: ADP-Glo Percent Activation at 50 μM; for EC50: concentration for half maximal activation, read-out: ADP GLO DRC: GeoMean EC50; for Emax: maximal percent activation, read-out: ADP GLO DRC: Mean Emax. On the procedure:
Potency of test compounds to modulate the ATPase activity of TRAP1 enzyme was evaluated using ADP Glo assay. The assay is based on quantification of the ADP generated from ATP in the ATPase reaction. The assay is performed in two steps; first, after the ATPase reaction an equal volume of ADP-Glo™ Reagent is added to terminate the ATPase reaction and deplete the remaining ATP. Second, the Kinase Detection Reagent is added to simultaneously convert ADP to ATP and allow the newly synthesized ATP to be measured using a luciferase/luciferin reaction.
All the assays were carried out in a 384-well Proxiplate. The buffer used was 25 mM Pipes pH-7.5, 40 mM KCl, 0.05 mM MgCl2, 0.025% BSA, 0.316 mM EGTA, 0.003% Empigen, 0.01% Igepal. 150 nM Trap1 enzyme was incubated with various concentrations of the test compound (0.79 μM-100 μM) at 37° C. for 30 mins (except in blank wells). 20 μM ATP was added to each well to start the reaction. The plate was spun for 1 min at 1200 rpm and then incubated at 37° C. for 60 mins. 5 μl of ADP Glo reagent was added to all the wells and spun the plate for 1 min at 1200 rpm and kept it on a shaker at ambient temperature for 60 mins. 10 μl of kinase detection mix was added to all the wells and the plate was read for Luminescence at 495 nm. The amount of ADP released was estimated from ATP/ADP standard curve generated at the same experimental conditions. Emax (Maximal percent activation) and EC50 (concentration for half maximal activation) were estimated by fitting the dose response data to a sigmoidal curve fitting equation using Graphpad Prism software V. 8.
For orientation: ADP-Glo first removes unused ATP, then detects ADP through luciferase.

Some results are limits rather than exact numbers.

`COc1ncc(NC(=O)c2cnc3c(c2)OCCN3C)cc1S(=O)(=O)Nc1c(C)cccc1C` [compound 2793]: the activation at 50 µM lay within 181 to 352%.

In the case of `COc1ncc(NC(=O)c2cncc(N(C)C)n2)cc1S(=O)(=O)Nc1c(C)cccc1C` [compound 2543], the activation at 50 µM lay within 181 to 352%. Consider `COc1ncc(NC(=O)c2cc(C(F)(F)F)nn2C)cc1S(=O)(=O)Nc1c(C)cccc1C` [compound 2614], for which the activation at 50 µM lay in the range of 120 to 150%. In the case of `COc1ncc(NC(=O)c2coc(N3CCOCC3)n2)cc1S(=O)(=O)Nc1c(C)cccc1C` [compound 2674], the activation at 50 µM lay in the range of 151 to 180%. For `COc1ncc(NC(=O)c2n[nH]c3c2CCCC3)cc1S(=O)(=O)Nc1c(C)cccc1C` [compound 2736], the activation at 50 µM was 181 to 352%. On the same count and under the same terms, the result for `COc1ncc(NC(=O)c2ccc(N3CCCC3=O)cc2)cc1S(=O)(=O)Nc1c(C)cccc1C` [compound 2532] reads 151 to 180%; that for `COc1ncc(NC(=O)c2ccn3ncnc3c2)cc1S(=O)(=O)Nc1c(C)cccc1C` [compound 2567], 120 to 150%; that for `COc1cncc(C(=O)Nc2cnc(OC)c(S(=O)(=O)Nc3c(C)cccc3C)c2)c1` [compound 2545], 151 to 180%. The EC50 is the concentration at which the effect is half-maximal. For orientation: Emax means the size of the effect at its maximum, as opposed to the concentration needed. On to `COc1ncc(NC(=O)c2ncc(-c3ccccc3)o2)cc1S(=O)(=O)Nc1cccc(C(F)(F)F)n1` [compound 2119], for which the EC50 fell in the range of 20 to 100 µM and the Emax lay within 200 to 300%.

As for `COc1ncc(NC(=O)c2cnn(C(C)C)c2)cc1S(=O)(=O)Nc1c(C)cccc1C` [compound 2639], the activation at 50 µM lay in the range of 151 to 180%. Still for that read-out and setting: in the case of `CCCc1cc(C(=O)Nc2cnc(OC)c(S(=O)(=O)Nc3c(C)cccc3C)c2)nn1C` [compound 2618] it was 181 to 352%.

On to `COc1ncc(NC(=O)c2coc(-c3ccccc3)n2)cc1S(=O)(=O)Nc1c(C)cccc1F` [compound 1485, N-(5-(N-(2-fluoro-6-methylphenyl)sulfamoyl)-6-methoxypyridin-3-yl)-2-phenyloxazole-4-carboxamide], for which the EC50 was less than 10 µM and the Emax fell in the range of 119 to 159%. In the case of `COc1ncc(NC(=O)c2coc(C(C)C)n2)cc1S(=O)(=O)Nc1c(C)cccc1C` [compound 2697], the activation at 50 µM was in the range of 181 to 352%. Consider `COc1ncc(NC(=O)c2ccc(N3CCN(C)CC3)cc2)cc1S(=O)(=O)Nc1c(C)cccc1C` [compound 2578], for which the activation at 50 µM lay within 181 to 352%. As to `COc1ncc(NC(=O)c2cccc(C(=O)N(C)C)c2)cc1S(=O)(=O)Nc1c(C)cccc1C` [compound 2613], the activation at 50 µM lay in the range of 151 to 180%. On to `COc1ncc(NC(=O)c2csc(-c3cccc(Cl)n3)n2)cc1S(=O)(=O)Nc1c(C)cccc1C` [compound 2445], for which the EC50 was less than 10 µM and the Emax was in the range of 160 to 199%. As to `COc1ncc(NC(=O)c2cnsn2)cc1S(=O)(=O)Nc1c(C)cccc1C` [compound 2569], the activation at 50 µM fell in the range of 120 to 150%. As to `COc1ncc(NC(=O)c2cnn(C)c2C(F)(F)F)cc1S(=O)(=O)Nc1c(C)cccc1C` [compound 2678], the activation at 50 µM fell in the range of 151 to 180%. As to `COc1ncc(NC(=O)c2ccccc2CN(C)C)cc1S(=O)(=O)Nc1c(C)cccc1C` [compound 2566], the activation at 50 µM fell in the range of 120 to 150%.

On to `COc1ncc(NC(=O)c2noc3c2CCCC3)cc1S(=O)(=O)Nc1c(C)cccc1C` [compound 2725], for which the activation at 50 µM is 181 to 352%. Still for that read-out and setting: the result for `COc1ncc(NC(=O)c2cccc3c2C(=O)NC3)cc1S(=O)(=O)Nc1c(C)cccc1C` [compound 2719] reads 151 to 180%. `COc1ncc(NC(=O)c2noc3ccccc23)cc1S(=O)(=O)Nc1c(C)cccc1C` [compound 1421, N-(5-(N-(2,6-dimethylphenyl)sulfamoyl)-6-methoxypyridin-3-yl) benzo[d]isoxazole-3-carboxamide]: the EC50 was less than 10 µM and the Emax was 200 to 300%. On to `COc1ncc(NC(=O)c2csc(-c3ccccc3)n2)cc1S(=O)(=O)Nc1ncc(C(F)(F)F)cn1` [compound 2069], for which the EC50 lay in the range of 20 to 100 µM and the Emax was in the range of 200 to 300%.

The values above are taken from patent publication US20230159509A1 (Amathus Therapeutics, Inc., priority 2020, published 2023).
